Assay results reported in ChEMBL document CHEMBL2311387, “Dose-dependent interaction of trans-resveratrol with biomembranes: effects on antioxidant property” (J Med Chem, 2013).
Calls of active or inactive are those of the source. The calls are words filed in the database; no cut-off is given here.

Assays:
[1] = Antioxidant activity in planer lipid bilayer membrane assessed as reduction in 50 uM DPPH-induced charge transfer resistance at 100 uM by admittance spectroscopic analysis; format: functional, cell membranes; parameters: scale not given: the % may be the effect or the level left
[2] = Antioxidant activity in planer lipid bilayer membrane assessed as reduction in 100 uM DPPH-induced charge transfer resistance at 100 uM by admittance spectroscopic analysis; format: functional, cell membranes; parameters: scale not given: the % may be the effect or the level left
[3] = Antioxidant activity in planer lipid bilayer membrane assessed as reduction in 100 uM DPPH-induced charge transfer resistance at 50 uM by admittance spectroscopic analysis; format: functional, cell membranes; parameters: scale not given: the % may be the effect or the level left
[4] = test system: Radical scavenging activity; experiment: Antioxidant activity assessed as DPPH free radical scavenging activity at >100 uM after 45 mins by UV-visible spectrophotometric analysis relative to vitamin C; format: functional
[5] = Binding affinity to planer lipid bilayer assessed as increase in anodic current by cyclic voltammetric analysis; format: physicochemical
[6] = Binding affinity to planer lipid bilayer assessed as reduction in diameter of semicircle pattern at up to 60 uM by admittance spectroscopic analysis; format: physicochemical
MCF7 = experiment: Cytotoxicity against human MCF7 cells at 100 uM after 24 hrs by MTS assay; format: cell-based; settings: mcf7, 24 h
[7] = Induction of destruction morphology in human erythrocytes up to 100 uM after 1 hr by cold field emission scanning electron microscopic analysis; format: cell-based; settings: erythrocyte
[8] = Induction of morphological changes in human erythrocytes at => 60 uM after 1 hr by cold field emission scanning electron microscopic analysis; format: cell-based; settings: erythrocyte
[9] = Binding affinity to planer lipid bilayer assessed as reduction in charge transfer resistance by admittance spectroscopic analysis; format: physicochemical
[10] = Binding affinity to planer lipid bilayer assessed as change in diameter of semicircle pattern by admittance spectroscopic analysis; format: physicochemical
[11] = Binding affinity to curcumin encapsulated liposomes assessed as curcumin release from unilamellar vesicles at 100 uM after 20 mins NMR spectroscopic analysis
[12] = Binding affinity to planer lipid bilayer assessed as increase in cathodic current by cyclic voltammetric analysis; format: physicochemical
[13] = Binding affinity to planer lipid bilayer assessed as change in height of semicircle pattern by admittance spectroscopic analysis; format: physicochemical
[14] = Induction of budding morphology in human erythrocytes up to 100 uM after 1 hr by cold field emission scanning electron microscopic analysis; format: cell-based; settings: erythrocyte
[15] = Antioxidant activity in planer lipid bilayer membrane assessed as reduction in 50 uM DPPH-induced charge transfer resistance at 50 uM by admittance spectroscopic analysis; format: functional, cell membranes; parameters: scale not given: the % may be the effect or the level left
[16] = Induction of blebbing morphology in human erythrocytes up to 100 uM after 1 hr by cold field emission scanning electron microscopic analysis; format: cell-based; settings: erythrocyte
[17] = Binding affinity to curcumin encapsulated liposomes assessed as curcumin release from unilamellar vesicles after 20 mins by NMR spectroscopic analysis
[18] = Antioxidant activity in planer lipid bilayer membrane assessed as inhibition of DPPH-induced reduction in height of semicircle at 50 to 100 uM by admittance spectroscopic analysis; format: functional, cell membranes
[19] = test system: Radical scavenging activity; experiment: Antioxidant activity assessed as DPPH free radical scavenging activity at <100 uM after 45 mins by UV-visible spectrophotometric analysis relative to vitamin C; format: functional
[20] = Antioxidant activity in planer lipid bilayer membrane assessed as inhibition of DPPH-induced reduction in diameter of semicircle at 50 to 100 uM by admittance spectroscopic analysis; format: functional, cell membranes

- Activity [5]: Dose-dependent effect
- Activity [6]: Active
- Activity [9]: Active
- Activity [10]: Dose-dependent effect
- Activity [11]: 17%
- Activity [12]: Dose-dependent effect
- Activity [13]: Dose-dependent effect
- Activity [17]: Dose-dependent effect
SMILES: Oc1ccc(/C=C/c2cc(O)cc(O)c2)cc1 [RESVERATROL]
- Activity [1]: 7.7%
- Activity [2]: 10.9%
- Activity [3]: 22%
- Activity [4]: Active
- Activity (MCF7): 50%
- Activity [7]: Toxic
- Activity [8]: Non-toxic
- Activity [14]: Toxic
- Activity [15]: 19.5%
- Activity [16]: Toxic
- inhibition [18]: Active
- Activity [19]: Active
- inhibition [20]: Active
